Measurements: patent US9878007B2, “Syndecan peptides and polypeptides as inhibitors of vascular endothelial growth factor receptor-2 (VEGFR2) and very late antigen-4 (VLA-4)” (Wisconsin Alumni Research Foundation, priority 2015, dated 2018)
pEC50, pIC50: −log10 of the molar value. No end group written: not given here.

How the values were obtained:
[1] = system: CAG myeloma cells; assay: Cell spreading / attachment assay of CAG myeloma cells on FN or VCAM-1; type: cell-based, human; settings: 0.3 μM peptide; for induction of HPSE^low cell spreading by S1ED peptides: on VCAM-1
Protocol: Nitrocellulose-coated slides were coated for 2 hr at 37° C. with 40 μg/ml FN (kindly provided by Dr. Donna Peters, University of Wisconsin-Madison) or 5 μg/ml recombinant VCAM-1/Fc chimera (R&D Systems) in calcium and magnesium-free PBS (CMF-PBS; 135 mM NaCl, 2.7 mM KCl, 10.2 mM Na2HPO4-7H20 and 1.75 mM KH2PO4, pH7.4). Slides were blocked for 1 hr at 37° C. with RPMI 1640 containing 1% heat-denatured BSA (plating medium). Cells in plating medium were allowed to attach and spread for 2.5 hr at 37° C. Slides were fixed in 4% EM grade paraformaldehyde (Electron Microscopy Sciences) in CMF-PBS and labeled for 30 min in 0.13 μM rhodamine phalloidin (Invitrogen) in CMF-PBS. Coverslips were mounted in non-fluorescing mounting medium (Immumount; Thermo Shandon) and allowed to dry. All images were acquired with a Nikon Microphot FX microscope using a 20× objective (Nikon; Ex 541-551, DM 580, Barrier 590), Photometric CoolSnap ES camera, and version 7.7.3.0 Metamorph© Imaging software (Molecular Devices). All images represent results from triplicate wells and at least three independent experiments.

[2] = target: T1, VEGFR2 and VLA-4 (Homo sapiens, UniProt P05556+P13612+P35968); assay: Activation / inhibition of Sdc1-mediated coupling of VEGFR2 to VLA-4 (FIGS. 6A-H); type: cell-based
T1 construct: the α4-integrin (VLA-4), which is expressed on myeloma cells; endogenous in cells; host or cells: CAG human myeloma cells (HPSE^low / HPSE^high) plated on fibronectin
T1 sequence (P35968 20-1356): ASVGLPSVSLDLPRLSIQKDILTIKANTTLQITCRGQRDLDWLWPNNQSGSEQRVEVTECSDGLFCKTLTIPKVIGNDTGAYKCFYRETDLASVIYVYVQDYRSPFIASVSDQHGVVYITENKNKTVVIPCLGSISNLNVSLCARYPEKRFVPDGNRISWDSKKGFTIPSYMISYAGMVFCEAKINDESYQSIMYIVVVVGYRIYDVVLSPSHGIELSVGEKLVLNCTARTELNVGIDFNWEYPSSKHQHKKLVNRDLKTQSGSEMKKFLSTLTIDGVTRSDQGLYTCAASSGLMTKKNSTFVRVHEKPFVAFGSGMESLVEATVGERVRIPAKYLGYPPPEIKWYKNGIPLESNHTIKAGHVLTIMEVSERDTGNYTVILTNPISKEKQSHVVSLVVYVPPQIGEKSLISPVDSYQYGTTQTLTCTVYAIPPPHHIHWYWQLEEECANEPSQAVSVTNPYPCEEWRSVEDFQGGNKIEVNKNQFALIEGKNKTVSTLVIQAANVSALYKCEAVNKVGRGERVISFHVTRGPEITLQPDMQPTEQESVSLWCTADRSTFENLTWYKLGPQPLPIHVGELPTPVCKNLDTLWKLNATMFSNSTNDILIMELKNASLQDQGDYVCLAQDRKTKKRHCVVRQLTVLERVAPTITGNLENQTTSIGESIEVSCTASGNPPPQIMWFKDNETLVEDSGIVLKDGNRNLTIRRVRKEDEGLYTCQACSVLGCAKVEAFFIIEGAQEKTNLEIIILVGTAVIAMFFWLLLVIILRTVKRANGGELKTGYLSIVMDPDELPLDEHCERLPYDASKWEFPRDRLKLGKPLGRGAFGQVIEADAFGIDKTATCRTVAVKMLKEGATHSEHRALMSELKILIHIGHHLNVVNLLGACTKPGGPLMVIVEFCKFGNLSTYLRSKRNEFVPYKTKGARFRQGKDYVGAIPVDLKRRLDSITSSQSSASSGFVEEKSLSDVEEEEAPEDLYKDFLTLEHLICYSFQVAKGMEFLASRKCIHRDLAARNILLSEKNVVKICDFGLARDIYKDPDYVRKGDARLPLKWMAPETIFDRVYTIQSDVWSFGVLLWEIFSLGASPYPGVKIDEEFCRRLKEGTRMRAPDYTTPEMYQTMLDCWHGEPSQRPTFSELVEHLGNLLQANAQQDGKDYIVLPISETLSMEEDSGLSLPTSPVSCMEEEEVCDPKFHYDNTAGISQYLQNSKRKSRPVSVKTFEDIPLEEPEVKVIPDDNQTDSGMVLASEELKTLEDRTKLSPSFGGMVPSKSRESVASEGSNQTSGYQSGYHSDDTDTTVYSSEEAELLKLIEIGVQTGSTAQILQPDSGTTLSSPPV
T1 sequence (P13612 34-1032): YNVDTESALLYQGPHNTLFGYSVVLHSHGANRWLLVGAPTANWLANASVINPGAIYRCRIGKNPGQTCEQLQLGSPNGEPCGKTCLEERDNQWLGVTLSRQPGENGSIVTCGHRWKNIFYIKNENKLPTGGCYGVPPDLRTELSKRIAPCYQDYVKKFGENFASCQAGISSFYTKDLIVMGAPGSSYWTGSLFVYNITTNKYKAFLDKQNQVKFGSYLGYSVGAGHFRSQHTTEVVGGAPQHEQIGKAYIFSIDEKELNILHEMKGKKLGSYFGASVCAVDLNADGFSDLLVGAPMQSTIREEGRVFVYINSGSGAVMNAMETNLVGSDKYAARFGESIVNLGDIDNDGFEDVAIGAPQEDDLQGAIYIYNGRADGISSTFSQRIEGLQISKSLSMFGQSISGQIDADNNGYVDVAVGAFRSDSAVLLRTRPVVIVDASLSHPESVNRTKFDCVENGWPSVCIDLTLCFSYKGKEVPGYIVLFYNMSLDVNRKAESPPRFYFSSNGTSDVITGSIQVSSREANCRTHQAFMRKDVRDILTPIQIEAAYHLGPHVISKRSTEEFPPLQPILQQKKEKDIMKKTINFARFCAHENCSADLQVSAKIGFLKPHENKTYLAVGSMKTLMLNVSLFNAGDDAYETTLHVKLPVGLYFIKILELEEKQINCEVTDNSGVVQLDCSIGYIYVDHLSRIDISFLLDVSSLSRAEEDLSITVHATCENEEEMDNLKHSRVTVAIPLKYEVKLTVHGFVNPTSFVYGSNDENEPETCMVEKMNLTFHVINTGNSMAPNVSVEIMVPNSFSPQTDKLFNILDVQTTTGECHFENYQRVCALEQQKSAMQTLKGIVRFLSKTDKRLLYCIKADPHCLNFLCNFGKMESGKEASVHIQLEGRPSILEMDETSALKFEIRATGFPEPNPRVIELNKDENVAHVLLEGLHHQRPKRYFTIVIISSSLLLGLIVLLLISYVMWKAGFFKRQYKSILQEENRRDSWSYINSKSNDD
T1 sequence (P05556 21-798): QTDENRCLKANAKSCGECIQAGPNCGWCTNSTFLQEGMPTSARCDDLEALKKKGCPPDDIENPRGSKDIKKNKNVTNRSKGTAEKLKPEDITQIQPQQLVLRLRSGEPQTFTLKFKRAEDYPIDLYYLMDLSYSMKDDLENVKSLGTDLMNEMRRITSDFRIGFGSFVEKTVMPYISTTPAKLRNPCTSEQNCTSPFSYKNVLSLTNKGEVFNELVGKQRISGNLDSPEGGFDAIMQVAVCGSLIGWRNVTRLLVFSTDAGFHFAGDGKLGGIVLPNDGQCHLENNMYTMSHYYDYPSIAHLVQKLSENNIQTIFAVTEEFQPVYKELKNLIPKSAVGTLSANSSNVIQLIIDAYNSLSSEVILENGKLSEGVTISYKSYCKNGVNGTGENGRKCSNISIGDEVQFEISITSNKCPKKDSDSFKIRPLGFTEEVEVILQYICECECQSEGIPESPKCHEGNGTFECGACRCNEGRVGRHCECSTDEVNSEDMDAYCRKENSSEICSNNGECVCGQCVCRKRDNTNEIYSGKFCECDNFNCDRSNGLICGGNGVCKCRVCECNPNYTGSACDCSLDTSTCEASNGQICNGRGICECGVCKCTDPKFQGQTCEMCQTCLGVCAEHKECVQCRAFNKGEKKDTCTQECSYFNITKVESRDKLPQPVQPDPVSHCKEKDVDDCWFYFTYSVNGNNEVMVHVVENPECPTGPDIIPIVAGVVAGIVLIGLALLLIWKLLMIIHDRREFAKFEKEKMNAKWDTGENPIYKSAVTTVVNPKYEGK
Protocol: FIGS. 6A-G. Peptides derived from the active site in Sdc1 activate or inhibit adhesion and invasion. (FIG. 6A) Transwell migration assays towards FN (for 16 hrs) were performed for HPSE low or high cells in the presence of 0, 0.3, 3, and 30 μM of S1ED^210-240. Cells migrating to the bottom side of the filter were counted from five random images for each treatment. (FIG. 6B) The sequence of S1ED210-240 is shown (SEQ ID NO: 3), as well as […] truncation mutants of the peptide (SEQ ID NOs: 5, 2, 4 and 7). Amino acids shown in red appear necessary for the spreading and invasive activity. (FIG. 6C) Images of HPSE^low and HPSE^high cells plated on FN for 2 hr. (FIG. 6D) HPSE^low cells were treated with 0, 0.3, 3, 10 and 30 μM of S1ED^210-236, S1ED^210-233, or S1ED^214-240, plated on FN for 2 hr, fixed and stained with fluorescent phalloidin. Cells from five random images were quantified for cell attachment and cell spreading. (FIG. 6E) HPSE^high cells were treated with 0, 3, 10, and 30 μM of S1ED^210-236, S1ED^210-233, and S1ED^214-240, plated on FN for 2 hr, then fixed, imaged and quantified as in FIG. 6D. (FIG. 6F) Transwell migration assays towards FN (for 16 hr) were performed for HPSE^low or HPSE^high cells in the presence of 30 μM of S1ED^210-236, S1ED^210-233, S1ED^214-240 and Vandetanib. (FIG. 6G) HPSE^low cell lysates were incubated overnight with glutathione beads coated with GST or GST-S1ED in the absence or presence of 30 μM of S1ED^210-236, S1ED^210-233, and S1ED^214-240. Capture of VLA-4 or VEGFR2 was detected by immunoblotting. Sequences in FIG. 6B are 210-240 (SEQ ID NO: 3), 210-236 (SEQ ID NO: 2), 210-233 (SEQ ID NO: 4), 214-240 (SEQ ID NO: 5) and 214-236 (SEQ ID NO: 7).
It is envisioned that a peptide that contains binding sites for both VEGFR2 and VLA-4, such as 210-236, has the capacity to bridge both receptors and link them together. This activates signaling that the cells use for migration and invasion. […]

[3] = target: T2, VEGFR2 (Homo sapiens, UniProt P35968); assay: VEGFR2 activation (pY1054/1059 immunoblot) in HPSE^low CAG cells; type: cell-based; settings: 0.3 μM peptide, 2.5 h
T2 construct: endogenous in cells; host or cells: CAG human myeloma cells (HPSE^low = empty vector; HPSE^high = human HPSE cDNA)
T2 sequence (P35968 20-1356): as the sequence (P35968 20-1356) above
Protocol: FIGS. 4A-C. HPSE expression leads to activation of VEGFR2 when α4-integrin engages ligand. (FIG. 4A) HPSE^low and HPSE^high cells treated with or without 1 μM Vandetanib, 20 ng/ml VEGF, or 20 μg/ml VEGFR2 blocking antibody are plated on VCAM-1 to observe cell spreading (Bar=50 μm); (FIG. 4B) HPSE^high cells plated on FN were treated with MMP-9 blocking antibody or 1 μM Vandetanib in the absence or presence of 0.3 μM S1ED^210-236 (Bar=50 μm); (FIG. 4C) HPSE^low cells were kept in suspension or were seeded on FN in the absence or presence of 0.3 μM S1ED^210-236 for 2.5 h. Cell lysates were immunoblotted with antibodies against pY1054/1059 in VEGFR2 as a marker of VEGFR2 activation. Actin is shown as a loading control.
The inventors next questioned whether VEGFR2 is upstream (e.g., responsible for shedding) or downstream (e.g., a target of the shed Sdc1) of Sdc1 shedding by testing whether or not Sdc1 mimetic peptide could rescue Vandetinib-blocked spreading. HPSE^high cell spreading on FN was inhibited using either anti-MMP9 blocking antibody or Vandetanib in the presence or absence of S1ED^210-236. […] VEGFR2 activation was assessed by measuring autophosphorylation at Tyr1054/1059 in its kinase domain (Lamalice et al., 2007).

Row | Substance | induction of HPSE^low cell spreading by S1ED peptides [1] | pEC50 ([2]; FIGS. 6A-H, read-out: EC50 of bridging VEGFR2 and VLA-4, activating signaling used for migration and invasion) | pIC50 ([2]; read-out: IC50 as inhibitor of the VLA-4/VEGFR2 coupling mechanism) | rescue of HPSE^high spreading blocked by MMP9 blocking antibody ([1]; on FN) | rescue of HPSE^high spreading blocked by Vandetanib ([1]; on FN, 1 μM Vandetanib) | VEGFR2 phosphorylation at Tyr1054/1059 ([3]; HPSE^low cells in suspension) | VEGFR2 phosphorylation at Tyr1054/1059 ([3]; HPSE^low cells plated on FN)
1 | S1ED^210-233: syndecan-1 ectodomain peptide, residues 210-233 (SEQ ID NO: 4) (DFTFETSGENTAVVAVEPDRRNQS) | do not | – | – | – | – | – | –
2 | DFTFETSGENTAVVAVEPDRRNQSPVD [S1ED^210-236] | retains full activity | 6.52 | 5.00 | rescued spreading in the presence of MMP9 inhibitor | fails to rescue spreading blocked by Vandetanib | no alteration of VEGFR2 phosphorylation | causes VEGFR2 phosphorylation in HPSE^low cells plated on FN
